# Measurements published in patent US20240124412A1, “IKAROS ZINC FINGER FAMILY DEGRADERS AND USES THEREOF” (Gilead Sciences, Inc., priority 2021, published 2024).
# Assays:
# [1] = target: T1, IKZF1 (Homo sapiens, UniProt Q13422+Q96SW2); assay: HiBiT protein tagging assay, in vitro IKZF1 degradation (HEK293); assay type: cell-based; conditions: HEK293, 18-24 hr incubation, normalized to DMSO control; for Dmax: read-out: IKZF1 Dmax (maximum degradation at the highest concentration tested); for DC50: read-out: IKZF1 EC50
# T1 construct: expressed in transfected cells
# In short: (§1)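 Flp-In T-REx HEK293 pools stably expressing C-terminal HiBiT-tagged IKZF1 or IKZF2 were induced overnight with 1 μg/ml doxycycline. Cells were then treated with serially diluted compound for 18-24 hr at 37 °C and read by Nano-Glo lytic luminescence. Data were normalized to 0.5% DMSO as POC; EC50 and Dmax (maximum degradation at highest concentration tested) reported.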
# [2] = target: T2, IKZF2 (Homo sapiens, UniProt Q96SW2+Q9UKS7); assay: HiBiT protein tagging assay, in vitro IKZF2 degradation (HEK293); assay type: cell-based; conditions: HEK293, 18-24 hr incubation, normalized to DMSO control; for Dmax: HEK293, HiBiT assay, read-out: IKZF2 Dmax (maximum degradation at the highest concentration tested); for DC50: HiBiT assay, read-out: IKZF2 EC50
# T2 construct: expressed in transfected cells
# In short: as §1
# T2 sequence (Q9UKS7 1-500 isoform Q9UKS7-2): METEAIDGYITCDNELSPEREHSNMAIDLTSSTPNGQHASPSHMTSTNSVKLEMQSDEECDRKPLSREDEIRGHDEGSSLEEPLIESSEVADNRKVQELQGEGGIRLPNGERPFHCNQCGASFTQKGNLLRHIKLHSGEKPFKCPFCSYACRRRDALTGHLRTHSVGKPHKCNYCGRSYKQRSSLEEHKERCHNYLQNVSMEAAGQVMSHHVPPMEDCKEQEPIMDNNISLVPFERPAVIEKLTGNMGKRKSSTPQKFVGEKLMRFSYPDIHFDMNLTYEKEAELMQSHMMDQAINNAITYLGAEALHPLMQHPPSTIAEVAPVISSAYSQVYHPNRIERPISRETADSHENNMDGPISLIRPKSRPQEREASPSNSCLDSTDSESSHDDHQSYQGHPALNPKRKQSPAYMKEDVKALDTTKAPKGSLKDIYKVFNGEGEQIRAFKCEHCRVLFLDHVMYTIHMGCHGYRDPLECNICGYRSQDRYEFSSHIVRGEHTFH
# T2 sequence (Q96SW2 whole entry): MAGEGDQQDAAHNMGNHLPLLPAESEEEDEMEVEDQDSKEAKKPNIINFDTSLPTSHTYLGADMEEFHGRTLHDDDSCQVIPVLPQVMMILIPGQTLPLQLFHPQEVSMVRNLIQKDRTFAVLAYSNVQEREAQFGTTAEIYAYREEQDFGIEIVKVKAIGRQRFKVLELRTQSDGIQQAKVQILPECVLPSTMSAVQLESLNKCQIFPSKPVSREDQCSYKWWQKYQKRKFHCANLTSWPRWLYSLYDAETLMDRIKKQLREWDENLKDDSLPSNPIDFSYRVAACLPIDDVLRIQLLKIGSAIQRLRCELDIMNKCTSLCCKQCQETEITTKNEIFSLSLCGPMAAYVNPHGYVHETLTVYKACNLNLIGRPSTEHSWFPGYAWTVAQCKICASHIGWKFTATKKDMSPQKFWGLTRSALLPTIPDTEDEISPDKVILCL
# T2 sequence (Q16531 whole entry partner): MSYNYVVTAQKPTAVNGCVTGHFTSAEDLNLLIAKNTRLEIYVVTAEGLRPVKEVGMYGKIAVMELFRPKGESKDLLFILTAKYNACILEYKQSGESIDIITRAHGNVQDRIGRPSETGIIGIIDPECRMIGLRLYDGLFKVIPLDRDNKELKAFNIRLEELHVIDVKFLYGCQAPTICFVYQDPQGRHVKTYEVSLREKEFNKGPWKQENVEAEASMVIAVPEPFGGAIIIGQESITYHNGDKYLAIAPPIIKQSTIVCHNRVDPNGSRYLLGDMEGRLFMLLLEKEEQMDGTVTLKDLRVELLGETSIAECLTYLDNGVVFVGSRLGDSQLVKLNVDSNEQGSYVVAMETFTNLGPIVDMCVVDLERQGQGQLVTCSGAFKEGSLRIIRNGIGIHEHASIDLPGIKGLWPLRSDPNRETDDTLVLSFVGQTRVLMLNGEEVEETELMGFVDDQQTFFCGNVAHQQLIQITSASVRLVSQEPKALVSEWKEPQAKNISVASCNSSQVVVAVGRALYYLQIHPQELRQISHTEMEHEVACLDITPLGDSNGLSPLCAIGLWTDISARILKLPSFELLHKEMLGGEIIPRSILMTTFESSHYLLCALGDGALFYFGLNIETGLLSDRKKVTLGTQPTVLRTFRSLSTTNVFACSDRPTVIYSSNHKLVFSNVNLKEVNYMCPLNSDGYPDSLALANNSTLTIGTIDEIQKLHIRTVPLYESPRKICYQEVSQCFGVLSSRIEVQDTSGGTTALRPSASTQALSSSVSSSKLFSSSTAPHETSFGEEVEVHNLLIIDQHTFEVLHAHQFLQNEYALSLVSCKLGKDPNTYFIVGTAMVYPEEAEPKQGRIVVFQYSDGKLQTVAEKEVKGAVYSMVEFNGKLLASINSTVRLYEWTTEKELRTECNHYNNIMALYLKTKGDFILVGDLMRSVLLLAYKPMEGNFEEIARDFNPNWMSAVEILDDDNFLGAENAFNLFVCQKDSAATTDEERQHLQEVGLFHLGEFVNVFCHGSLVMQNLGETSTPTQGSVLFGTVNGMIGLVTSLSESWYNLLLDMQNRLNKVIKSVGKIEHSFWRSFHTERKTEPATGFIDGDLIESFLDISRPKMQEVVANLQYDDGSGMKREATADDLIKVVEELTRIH
# T1 sequence (Q13422 whole entry): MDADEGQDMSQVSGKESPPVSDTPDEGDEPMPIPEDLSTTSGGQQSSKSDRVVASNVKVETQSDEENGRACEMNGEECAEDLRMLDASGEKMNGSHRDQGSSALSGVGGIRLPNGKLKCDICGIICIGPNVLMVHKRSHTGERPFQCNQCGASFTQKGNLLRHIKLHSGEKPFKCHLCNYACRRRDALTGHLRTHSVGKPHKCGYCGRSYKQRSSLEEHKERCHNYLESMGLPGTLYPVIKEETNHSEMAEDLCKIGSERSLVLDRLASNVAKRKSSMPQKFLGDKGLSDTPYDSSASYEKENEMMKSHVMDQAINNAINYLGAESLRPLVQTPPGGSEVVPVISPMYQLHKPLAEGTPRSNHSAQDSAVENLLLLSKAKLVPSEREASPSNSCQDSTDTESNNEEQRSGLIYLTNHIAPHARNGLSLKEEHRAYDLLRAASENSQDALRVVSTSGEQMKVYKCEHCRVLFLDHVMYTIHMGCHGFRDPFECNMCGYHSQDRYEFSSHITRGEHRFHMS
# T1 sequence (Q96SW2 whole entry): as the sequence (Q96SW2 whole entry) above
# T1 sequence (Q16531 whole entry partner): as the sequence (Q16531 whole entry partner) above
Structure (SMILES),Dmax [1],DC50 [1],Dmax [2],DC50 [2]
"O=C1CCC(N2Cc3cc(CNC4CCCC(C(F)(F)F)C4)ccc3C2=O)C(=O)N1 (stereo not drawn) [Example 128, 3-(1-oxo-5-((((1,3-trans)-3-(trifluoromethyl)cyclohexyl)amino)methyl)isoindolin-2-yl)piperidine-2,6-dione]",42%,104 nM,64%,181 nM
O=C1CCC(N2Cc3cc(CN[C@@H]4CCC[C@H](C(=O)c5ccccc5)C4)ccc3C2=O)C(=O)N1 (some centres unmarked) [Example 129],60%,113 nM,60%,193 nM
"O=C1CCC(N2Cc3cc(CN[C@@H]4CCCN(Cc5ccccn5)C4)ccc3C2=O)C(=O)N1 (stereo partly drawn) [Example 130, 3-(1-oxo-5-((((R)-1-(pyridin-2-ylmethyl)piperidin-3-yl)amino)methyl)isoindolin-2-yl)piperidine-2,6-dione]",97%,48 nM,97%,138 nM
CC1(C)CCCC(NCc2ccc3c(c2)CN(C2CCC(=O)NC2=O)C3=O)C1 (centres unmarked) [Example 131],69%,91 nM,92%,62 nM
O=C1CCC(N2Cc3cc(CNC4CCCC5(CC5)C4)ccc3C2=O)C(=O)N1 (centres unmarked) [Example 132],58%,146 nM,84%,97 nM
O=C1CCC(N2Cc3cc(CNC4CCCC5(CCCC5)C4)ccc3C2=O)C(=O)N1 (centres unmarked) [Example 133],51%,185 nM,72%,273 nM
C[C@@H]1[C@@H](NCc2ccc3c(c2)CN(C2CCC(=O)NC2=O)C3=O)C[C@H]2C[C@@H]1C2(C)C (some centres unmarked) [Example 134],,> 10000 nM,89%,111 nM
O=C1CCC(N2Cc3cc(CN[C@@H]4CCC[C@H]([C@@H](O)c5ccccc5)C4)ccc3C2=O)C(=O)N1 (some centres unmarked) [Example 135],92%,95 nM,94%,231 nM
O=C1CCC(N2Cc3cc(CN[C@@H]4CCC[C@H]([C@H](O)c5ccccc5)C4)ccc3C2=O)C(=O)N1 (some centres unmarked) [Example 136],93%,99 nM,95%,204 nM
O=C1CCC(N2Cc3cc(CN[C@@H]4CCC[C@H](Cc5ccccc5Cl)C4)ccc3C2=O)C(=O)N1 (some centres unmarked) [Example 137],95%,3 nM,96%,8 nM
"C[C@@H]1CC[C@@H](NCc2ccc3c(c2)CN(C2CCC(=O)NC2=O)C3=O)CN1Cc1ccccc1 (stereo partly drawn) [Example 138, 3-(5-((((3R,6R)-1-benzyl-6-methylpiperidin-3-yl)amino)methyl)-1-oxoisoindolin-2-yl)piperidine-2,6-dione]",92%,27 nM,83%,189 nM
C[C@@H]1[C@H]2C[C@@H](C[C@H]1NCc1ccc3c(c1)CN(C1CCC(=O)NC1=O)C3=O)C2(C)C (some centres unmarked) [Example 139],,> 1000 nM,26%,109 nM
CC1(C)CCC(NCc2ccc3c(c2)CN(C2CCC(=O)NC2=O)C3=O)CC1 (centres unmarked) [Example 140],60%,55 nM,86%,61 nM
O=C1CCC(N2Cc3cc(CNC45CCC(CC4)C5)ccc3C2=O)C(=O)N1 (centres unmarked) [Example 141],32%,121 nM,93%,37 nM
O=C1CCC(N2Cc3cc(CNC45CCC(CO)(CC4)C5)ccc3C2=O)C(=O)N1 (centres unmarked) [Example 142],26%,374 nM,99%,218 nM
O=C1CCC(N2Cc3cc(CNC45CCCC(O)(C4)C5)ccc3C2=O)C(=O)N1 (centres unmarked) [Example 143],,> 1000 nM,66%,243 nM
COC(=O)C1(C)CCCC(NCc2ccc3c(c2)CN(C2CCC(=O)NC2=O)C3=O)C1 (centres unmarked) [Example 144],50%,137 nM,88%,97 nM
O=C1CCC(N2Cc3cc(CN[C@@H]4CCCC[C@H]4OCc4ccccc4Cl)ccc3C2=O)C(=O)N1 (some centres unmarked) [Example 145],31%,246 nM,92%,78 nM
O=C1CCC(N2Cc3cc(CN[C@@H]4CCC[C@H](COCc5ccccc5)C4)ccc3C2=O)C(=O)N1 (some centres unmarked) [Example 146],93%,5 nM,94%,9 nM
CC1CCC(C)(NCc2ccc3c(c2)CN(C2CCC(=O)NC2=O)C3=O)CC1 (centres unmarked) [Example 147],28%,155 nM,87%,87 nM
